In ChEMBL document CHEMBL6074700, “Furan- and Furopyrimidine-Based Derivatives: Synthesis, VEGFR-2 Inhibition, and In Vitro Cytotoxicity” (ACS Med Chem Lett, 2024):
Calls of active or inactive are those of the source. The rule behind the calls is not given here.

Legend:
MCF7 = assay: Antiproliferative activity against human MCF7 cells incubated for 72 hrs; conditions: MCF7, 72 h
HT-29 [1] = assay: Antiproliferative activity against human HT-29 cells incubated for 72 hrs; conditions: HT-29, 72 h
PC-3 = assay: Antiproliferative activity against human PC-3 cells incubated for 72 hrs; conditions: PC-3, 72 h
HepG2 = assay: Antiproliferative activity against human HepG2 cells incubated for 72 hrs; conditions: HepG2, 72 h
WI-38 = assay: Antiproliferative activity against human WI-38 cells incubated for 72 hrs; conditions: WI-38, 72 h
A549 = assay: Antiproliferative activity against human A549 cells incubated for 72 hrs; conditions: A549, 72 h
[2] = biological target: Vascular endothelial growth factor receptor 2 (Homo sapiens, UniProt P35968); assay: Inhibition of VEGFR2 (unknown origin)
Sequence of Vascular endothelial growth factor receptor 2 (P35968 whole entry): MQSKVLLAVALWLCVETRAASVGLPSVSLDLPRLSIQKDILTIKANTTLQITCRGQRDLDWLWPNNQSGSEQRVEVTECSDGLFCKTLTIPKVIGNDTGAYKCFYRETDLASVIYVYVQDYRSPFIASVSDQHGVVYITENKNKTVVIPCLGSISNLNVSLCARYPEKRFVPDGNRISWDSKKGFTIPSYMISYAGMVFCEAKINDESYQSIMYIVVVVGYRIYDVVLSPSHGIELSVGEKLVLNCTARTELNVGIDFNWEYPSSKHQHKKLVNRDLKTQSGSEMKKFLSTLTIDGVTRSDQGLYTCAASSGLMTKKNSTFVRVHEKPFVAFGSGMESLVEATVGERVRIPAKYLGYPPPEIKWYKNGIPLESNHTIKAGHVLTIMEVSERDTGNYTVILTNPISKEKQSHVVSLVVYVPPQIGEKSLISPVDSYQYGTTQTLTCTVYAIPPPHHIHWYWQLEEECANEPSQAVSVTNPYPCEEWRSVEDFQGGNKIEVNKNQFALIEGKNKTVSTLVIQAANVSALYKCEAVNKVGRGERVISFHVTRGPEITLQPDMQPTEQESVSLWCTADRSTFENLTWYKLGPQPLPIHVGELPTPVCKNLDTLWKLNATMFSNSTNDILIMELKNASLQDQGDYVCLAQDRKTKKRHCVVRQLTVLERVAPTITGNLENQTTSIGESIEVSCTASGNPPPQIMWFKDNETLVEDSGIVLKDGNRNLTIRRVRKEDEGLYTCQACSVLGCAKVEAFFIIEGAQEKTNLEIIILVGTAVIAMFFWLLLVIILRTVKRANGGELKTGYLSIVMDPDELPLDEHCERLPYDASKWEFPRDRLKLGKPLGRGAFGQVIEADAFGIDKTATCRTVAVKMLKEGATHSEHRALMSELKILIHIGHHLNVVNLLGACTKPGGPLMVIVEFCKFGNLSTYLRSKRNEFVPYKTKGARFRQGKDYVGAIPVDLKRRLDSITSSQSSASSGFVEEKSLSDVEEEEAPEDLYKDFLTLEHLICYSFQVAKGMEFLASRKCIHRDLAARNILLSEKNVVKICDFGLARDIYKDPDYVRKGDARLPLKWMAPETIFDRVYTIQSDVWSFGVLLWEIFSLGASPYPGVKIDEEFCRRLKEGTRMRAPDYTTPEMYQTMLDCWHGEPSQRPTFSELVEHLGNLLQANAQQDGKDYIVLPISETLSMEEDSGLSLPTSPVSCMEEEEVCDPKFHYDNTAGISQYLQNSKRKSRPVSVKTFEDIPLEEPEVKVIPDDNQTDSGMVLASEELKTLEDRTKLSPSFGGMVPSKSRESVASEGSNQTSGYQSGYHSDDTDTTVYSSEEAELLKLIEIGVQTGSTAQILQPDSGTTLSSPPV

HUVEC = assay: Cytotoxicity against HUVEC cells; conditions: Homo sapiens
HT-29 [3] = assay: Induction of cell cycle arrest in human HT-29 cells assessed as accumulation of cells at G2/M phase at IC50 measured after 24 hrs by flow cytometry; assay type: functional, cell-based
HT-29 [4] = assay: Induction of apoptosis in human HT-29 cells assessed as increase in total apoptotic cells measured after 24 hrs by flow cytometry; assay type: functional, cell-based

Row | IC50 (MCF7) [µM] | IC50 (HT-29 [1]) [µM] | IC50 (PC-3) [µM] | IC50 (HepG2) [µM] | IC50 (A549) [µM] | Structure (SMILES) | IC50 (WI-38) [µM] | also measured
1 | 11.4 | 21.4 | 22.1 | 13.1 | 14.5 | O=C(Nc1ncnc2oc(-c3ccccc3)c(-c3ccccc3)c12)c1ccc([N+](=O)[O-])cc1 | 26.5 | –
2 | 9.06 | 12.1 | 23.2 | 11.2 | 10.1 | N#Cc1c(N=CNc2ccc(Br)cc2)oc(-c2ccccc2)c1-c1ccccc1 | 27.4 | –
3 | – | – | – | – | – | Cc1ccc(-c2nc3c4c(-c5ccccc5)c(-c5ccccc5)oc4ncn3n2)cc1 | – | IC50 [2]: 0.125 µM
4 | – | – | – | – | – | Cc1cccc(-c2nc3c4c(-c5ccccc5)c(-c5ccccc5)oc4ncn3n2)c1 | – | IC50 [2]: 0.121 µM
5 | – | – | – | – | – | N=c1c2cc(-c3ccccc3)oc2ncn1/N=C/c1ccc(Br)cc1 | – | IC50 (HUVEC): 61.2 µM
6 | – | – | – | – | – | COc1ccc(-c2nc3c4cc(-c5ccc(OC)cc5)oc4ncn3n2)cc1 | – | IC50 (HUVEC): 22.6 µM
7 | 6.72 | 8.51 | 14.5 | 7.28 | 6.66 | N#Cc1c(N=CNc2ccc(Cl)cc2)oc(-c2ccccc2)c1-c1ccccc1 | 30 | Activity (HT-29 [3]): Active; Activity (HT-29 [4]): Active
